The results in this text go back to patent US20240384350A1, “METHODS OF TREATING CANCER WITH KINASE INHIBITORS” (BOARD OF REGENTS, THE UNIVERSITY OF TEXAS SYSTEM, priority 2021, published 2024).

What all share (assay): Ba/F3 drug screening, Cell Titer Glo, IC50 Mut/WT
Holding throughout (assay type): cell-based
On the technique in general: Cellular ATP, detected with luciferase, serves as a proxy for viable cell number.

Assay [1] concerns the target T1, EGFR E709K L858R (Homo sapiens, UniProt P00533, E709K/L858R).
T1 construct: expressed in transfected cells; host or cells: Ba/F3 cells, retroviral pBabe-Puro vector
The following applies: Classical-Like, 72 hours.

The target of assay [2] is T2, EGFR L833F (Homo sapiens, UniProt P00533, L833F).
T2 construct: expressed in transfected cells; host or cells: Ba/F3 cells, retroviral pBabe-Puro vector
To be noted: Classical-Like, 72 hours.

The target of assay [3] is T3, EGFR L858R S784F (Homo sapiens, UniProt P00533, L858R/S784F).
T3 construct: expressed in transfected cells; host or cells: Ba/F3 cells, retroviral pBabe-Puro vector (vector made by GeneScript from EGFR L858R)
To be noted: Classical-Like, 72 hours.

For assay [4], the target named is T4, EGFR S720P (Homo sapiens, UniProt P00533, S720P).
T4 construct: expressed in transfected cells; host or cells: Ba/F3 cells, retroviral pBabe-Puro vector (vector made by GeneScript from EGFR WT)
To be noted: Classical-Like, 72 hours.

In assay [5] the target is T5, EGFR K754E (Homo sapiens, UniProt P00533, K754E).
T5 construct: expressed in transfected cells; host or cells: Ba/F3 cells, retroviral pBabe-Puro vector
The following applies: Classical-Like, 72 hours.

Assay [6] concerns the target T6, EGFR L861Q (Homo sapiens, UniProt P00533, L861Q).
T6 construct: expressed in transfected cells; host or cells: Ba/F3 cells, retroviral pBabe-Puro vector
To be noted: Classical-Like, 72 hours.

The target in assay [7] is T7, EGFR S768dupSVD V769M (Homo sapiens, UniProt P00533, INS768MDS/V769M).
T7 construct: expressed in transfected cells; host or cells: Ba/F3 cells, retroviral pBabe-Puro vector (vector made by GeneScript from EGFR S768dupSVD, c.2305G > A)
The following applies: Ex20, 72 hours.

For assay [8], the target named is T8, EGFR D770insNPG (Homo sapiens, UniProt P00533, INS770NPG).
T8 construct: expressed in transfected cells; host or cells: Ba/F3 cells, retroviral pBabe-Puro vector
To be noted: Ex20, 72 hours.

Assay [9] deals with T9, EGFR N771dupN G724S (Homo sapiens, UniProt P00533, DUP771-771/G724S).
T9 construct: expressed in transfected cells; host or cells: Ba/F3 cells, retroviral pBabe-Puro vector (vector made by GeneScript from EGFR G724S, c.2313_2314insAAC)
The following applies: Ex20, 72 hours.

Assay [10] concerns the target T10, EGFR G719A T790M (Homo sapiens, UniProt P00533, G719A/T790M).
T10 construct: expressed in transfected cells; host or cells: Ba/F3
To be noted: T790M-like-3S, 72 hours.

For assay [11], the target named is T11, EGFR G719S T790M (Homo sapiens, UniProt P00533, G719S/T790M).
T11 construct: expressed in transfected cells; host or cells: Ba/F3
The following applies: T790M-like-3S, 72 hours.

Assay [12] has as its target T12, EGFR L858R T790M V843I (Homo sapiens, UniProt P00533, L858R/T790M/V843I).
T12 construct: expressed in transfected cells; host or cells: Ba/F3
The following applies: T790M-like-3S, 72 hours.

For assay [13], the target named is T13, EGFR Ex19del T790M L718V (Homo sapiens, UniProt P00533, DEL746-750/L718V/T790M).
T13 construct: expressed in transfected cells; host or cells: Ba/F3
To be noted: T790M-like-3S, 72 hours.

Assay [14] deals with T14, EGFR Ex19del T790M C797S (Homo sapiens, UniProt P00533, C797S/DEL746-750/T790M).
T14 construct: expressed in transfected cells; host or cells: Ba/F3
The following applies: T790M-like-3R, 72 hours.

For assay [15], the target named is T15, EGFR E709A G719S (Homo sapiens, UniProt P00533, E709A/G719S).
T15 construct: expressed in transfected cells; host or cells: Ba/F3
The following applies: Ba/F3 cells, EGFR E709A G719S (PACC), Mut/WT.

The target of assay [16] is T16, EGFR G719S (Homo sapiens, UniProt P00533, G719S).
T16 construct: expressed in transfected cells; host or cells: Ba/F3
The following applies: Ba/F3 cells, EGFR G719S (PACC), Mut/WT.

The target in assay [17] is T17, EGFR G724S (Homo sapiens, UniProt P00533, G724S).
T17 construct: expressed in transfected cells; host or cells: Ba/F3
The following applies: Ba/F3 cells, EGFR G724S (PACC), Mut/WT.

Assay [18] deals with EGFR I740dupIPVAK. The following applies: Ba/F3 cells, EGFR I740dupIPVAK (PACC), Mut/WT.
Assay [19] addresses T18, EGFR L747P (Homo sapiens, UniProt P00533, L747P).
T18 construct: expressed in transfected cells; host or cells: Ba/F3
The following applies: Ba/F3 cells, EGFR L747P (PACC), Mut/WT.

In assay [20] the target is T19, EGFR L747S (Homo sapiens, UniProt P00533, L747S).
T19 construct: expressed in transfected cells; host or cells: Ba/F3
The following applies: Ba/F3 cells, EGFR L747S (PACC), Mut/WT.

Assay [21] deals with T20, EGFR S768I (Homo sapiens, UniProt P00533, S768I).
T20 construct: expressed in transfected cells; host or cells: Ba/F3
To be noted: Ba/F3 cells, EGFR S768I (PACC), Mut/WT.

Assay [22] deals with T21, EGFR V769L (Homo sapiens, UniProt P00533, V769L).
T21 construct: expressed in transfected cells; host or cells: Ba/F3
To be noted: Ba/F3 cells, EGFR V769L (PACC), Mut/WT.

Assay [23] concerns the target T22, EGFR R776H (Homo sapiens, UniProt P00533, R776H).
T22 construct: host or cells: Ba/F3
The following applies: Ba/F3 cells, EGFR R776H (PACC), Mut/WT.

In assay [24] the target is T23, EGFR Ex19del G796S (Homo sapiens, UniProt P00533, DEL746-750/G796S).
T23 construct: expressed in transfected cells; host or cells: Ba/F3
To be noted: Ba/F3 cells, EGFR Ex19del G796S (PACC), Mut/WT.

Regarding `C=CC(=O)Nc1cc(Nc2nccc(-c3c[nH]c4ccccc34)n2)c(OC)cc1N(C)CCN(C)C` [AZ5104], the “ratio of IC50 for cells with mutant EGFR to IC50 for cells with wildtype EGFR (Mut/WT)” value (from here on “ratio of IC50 for cells with mutant EGFR”) amounted to 0.1151 in [1]; 0.7284 in assay [2]; 0.0429 in [3]; 0.009841 in assay [4]; 0.01871 in [5]; 0.5871 in [6]. The “ratio of IC50 for cells with mutant EGFR” value in assay [7] is on record as 0.3864; in assay [8], 1.976; in [9], 1.826; in [10] it was 0.1667; in assay [11] it was 0.1839; in assay [12], 0.6934. For the same compound, the “ratio of IC50 for cells with mutant EGFR” value in [13] is reported as 0.7041; in assay [14], 56.35. In addition, the “ratio of the IC50 value for cells with a PACC EGFR mutation to the IC50 value for cells with wildtype EGFR” value (“ratio of the IC50 value for cells” below) in [15] was 0.797; in assay [16] it was 0.3756; in assay [17], 36.15; in [18], 2.234; in assay [19], 3.59; in assay [20] it was 4.201. The “ratio of the IC50 value for cells” value in assay [21] was found to be 1.361; in assay [22], 1.367; in assay [23] it was 3.409; in assay [24], 0.8807.
In the case of `C=CC(=O)Nc1cc(Nc2nccc(-n3cc(CN(C)C)c(-c4ccccc4)n3)n2)c(OC)cc1N1CCOCC1` [Lazertinib], the “ratio of IC50 for cells with mutant EGFR” value in assay [1] is on record as 0.0006261; in assay [2], 0.08625; in assay [3], 0.02456; in assay [4], 0.01568; in assay [5], 0.1385; in assay [6] it was 0.05622. Further, the “ratio of IC50 for cells with mutant EGFR” value in [7] worked out at 2.831; in assay [8] it was 4.93; in assay [10] it was 0.00108; in [11] it was 0.003464; in assay [12], 0.06612; in assay [13] it was 0.4667. Further, the “ratio of IC50 for cells with mutant EGFR” value in [14] stood at 26.17. For the same compound, the “ratio of the IC50 value for cells” value is 0.06878 in [15]; 0.1555 in [16]; 26.17 in assay [17]; 0.2883 in [18]; 2.92 in assay [19]; 1.007 in [20]. The “ratio of the IC50 value for cells” value in [21] was 1.26; in [22], 1.618; in [23], 0.6077; in assay [24] it was 1.423.
